Values of other authors as cited in patent US20220339295A1, “FULLERENE GALLIUM P[…] METHODS” (Exothule Inc., priority 2020, published 2022).

Key:
transferrin = transferrin (Homo sapiens, UniProt P02787); details: relative to Fe3+
transferrin, sequence (P02787 20-698, species assumed): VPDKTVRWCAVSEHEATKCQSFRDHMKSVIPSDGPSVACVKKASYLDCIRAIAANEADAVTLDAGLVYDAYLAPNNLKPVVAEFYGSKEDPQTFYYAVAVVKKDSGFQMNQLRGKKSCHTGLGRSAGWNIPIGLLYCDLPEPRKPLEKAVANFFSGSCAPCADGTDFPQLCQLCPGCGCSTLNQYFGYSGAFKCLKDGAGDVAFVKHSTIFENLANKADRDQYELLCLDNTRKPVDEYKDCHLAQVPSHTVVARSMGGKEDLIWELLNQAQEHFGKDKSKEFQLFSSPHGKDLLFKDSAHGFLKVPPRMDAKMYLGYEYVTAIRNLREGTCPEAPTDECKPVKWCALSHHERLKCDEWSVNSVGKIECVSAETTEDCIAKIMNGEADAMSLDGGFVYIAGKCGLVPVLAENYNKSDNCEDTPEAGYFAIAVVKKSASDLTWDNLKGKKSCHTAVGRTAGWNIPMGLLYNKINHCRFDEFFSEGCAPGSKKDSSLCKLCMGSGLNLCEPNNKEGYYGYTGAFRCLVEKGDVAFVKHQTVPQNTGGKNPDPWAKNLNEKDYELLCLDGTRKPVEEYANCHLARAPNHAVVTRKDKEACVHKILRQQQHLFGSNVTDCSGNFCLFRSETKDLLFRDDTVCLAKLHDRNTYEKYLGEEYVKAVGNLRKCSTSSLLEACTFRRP

SMILES: [Ga] [gallium]
- binding in transferrin, times less effectively than Fe3+ (transferrin): 300 times
- gallium excreted in urine (after 24 hours): 69%
- gallium excreted (in 48 hours): 91%
